Reference: patent US20240125807A1, “METHOD FOR MEASURING RELATIVE fu RATIO BY DYNAMIC [sequence]” (Chugai Seiyaku Kabushiki Kaisha, priority 2020, published 2024)
Where two headings read alike, the source gives them in different places.

Legend:
[1] = cited from earlier work
[2] = serum, 24 h, 0.2 μmol/L
in vitro [3] = settings: rat
in vitro [4] = settings: human, serum
[5] = rat and human, 24 h, 0.2 μmol/L
[6] = fu by static analysis (versus buffer), rat serum (Reference Example); settings: Reference Examples 4 to 13: 10% serum versus buffer, 24 h
[7] = Relative fu ratio rat/human, equilibrium dialysis serum versus serum, dynamic analysis; settings: Examples 4 to 13: 10% serum, analyte 0.2 μmol/L, 0.5-24 h
CYP3A4 [8] = biological target: T1, CYP3A4 (Homo sapiens, UniProt P08684); experiment: Inhibition constant Ki in human hepatic microsome with midazolam as CYP3A4 probe substrate
Experimental: For predicting the DDI risk, midazolam that is a CYP3A4 substrate was used as a probe compound to determine an inhibition constant Ki value of each compound in human hepatic microsome.
To 5 μL of a solution of midazolam dissolved therein at 50 mmol/L was added 70 μL of a 50% acetonitrile solution to obtain 75 μL in total of a solution. […] To 25 mg of commercially available β-NADPH (Wako Pure Chemical Industries, Ltd.) was added 3000 μL of a phosphate buffer at 0.1 mol/L to obtain a NADPH solution (10 mmol/L). The prepared solutions were mixed in the following order to obtain an inhibition reaction solution (100 μL in total), and the solution was reacted for 5 minutes with stirring at 37° C. where the time immediately after addition of the NADPH solution was defined as 0 minute after the start of the reaction.
The thus-obtained sample was used as a LCMS measurement solution. Two sets of the LCMS measurement solution were prepared, with one intended for quantitative determination of 1-hydroxymidazolam generated by metabolic reaction and the other intended for measurement of the actual concentration of a compound to be measured (inhibitor). Each set was used for LCMS quantitative analysis.
Therefore, the determined IC50 was directly used as Ki value.

[9] = fu ratio (serum/microsome) from fu values by static analysis (versus buffer), Reference Examples 14 to 20; type: in vitro ADME, human; settings: from fu values of Reference Examples 14 to 20 (static analysis versus buffer)
CYP3A4 [10] = biological target: T1, CYP3A4; set-up: unit not given beside the values; settings: in vivo, cited from earlier work
[11] = fu ratio (serum/microsome) using fu value (microsome) and fu value (serum)=0.01 based on the FDA guidance, Reference Examples 21 to 27; type: in vitro ADME, human; settings: fu value (microsome) of Reference Examples 14 to 20 and fu value (serum)=0.01 per FDA guidance (Reference Examples 21 to 27)
CYP3A4 [12] = biological target: T1, CYP3A4; settings: read-out: Km value; midazolam as CYP3A4 substrate, suggested in the literature; cited from earlier work
[13] = fu value (microsome) by static analysis (versus buffer), Reference Examples 14 to 20; type: in vitro ADME; settings: human, human hepatic microsomes 0.1 mg/mL dialysed against buffer, microsome 0.1 mg/mL
[14] = serum, 24 h, 0.2 μmol/L; remark: listed apart in the source
[15] = fu by static analysis (versus buffer), human serum (Reference Example); settings: 24 h, 10% serum fu corrected to serum concentration 1/1
[16] = Relative fu ratio (serum/microsome), human serum and human hepatic microsome, dynamic analysis; settings: human serum fu corrected to 1/1, human hepatic microsome 0.1 mg/mL

T1 sequence (P08684 whole entry): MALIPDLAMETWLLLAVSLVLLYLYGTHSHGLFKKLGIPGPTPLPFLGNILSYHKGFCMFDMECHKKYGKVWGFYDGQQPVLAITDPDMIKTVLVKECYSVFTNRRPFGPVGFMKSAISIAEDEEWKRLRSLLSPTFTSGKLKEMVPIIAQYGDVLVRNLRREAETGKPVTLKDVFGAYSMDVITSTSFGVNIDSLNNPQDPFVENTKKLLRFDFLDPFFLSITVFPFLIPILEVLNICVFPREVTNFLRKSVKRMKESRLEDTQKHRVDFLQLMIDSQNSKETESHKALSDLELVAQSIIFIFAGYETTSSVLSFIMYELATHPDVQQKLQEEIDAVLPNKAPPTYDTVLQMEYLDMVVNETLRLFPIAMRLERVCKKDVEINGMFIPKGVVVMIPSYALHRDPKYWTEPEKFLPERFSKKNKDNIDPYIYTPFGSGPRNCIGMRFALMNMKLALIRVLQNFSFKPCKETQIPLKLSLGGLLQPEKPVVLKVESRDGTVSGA

SMILES: CC(=O)N1CCN(c2ccc(OCC3COC(Cn4ccnc4)(c4ccc(Cl)cc4Cl)O3)cc2)CC1 (stereo not shown) [Ketoconazole]
- Cmax ([1]; Dose 200 mg): 4681.36 ng/mL
- Cmax ([1]; Dose 400 mg): 5877.28 ng/mL

SMILES: O=C(NC1CCN(CCCCC2(C(=O)NCC(F)(F)F)c3ccccc3-c3ccccc32)CC1)c1ccccc1-c1ccc(C(F)(F)F)cc1 [Lomitapide]
- Human (fu value) [2]: 0.002
- fraction unbound at 24 h, 0.2 μmol/L (in vitro [3]; serum): 0.006

SMILES: C=CC(=O)N1CCC[C@@H](n2nc(-c3ccc(Oc4ccccc4)cc3)c3c(N)ncnc32)C1 [Ibrutinib]
- fraction unbound at 24 h, 0.2 μmol/L (in vitro [4]): 0.019
- fraction unbound at 24 h, 0.2 μmol/L (in vitro [3]; serum): 0.007

SMILES: C=C[C@@H]1C[C@]1(NC(=O)[C@@H]1C[C@@H](Oc2ncc(OC)c3ccc(Cl)cc23)CN1C(=O)[C@@H](NC(=O)OC(C)(C)C)C(C)(C)C)C(=O)NS(=O)(=O)C1CC1 [Asunaprevir]
- fraction unbound at 24 h, 0.2 μmol/L (in vitro [4]): 0.005
- fraction unbound at 24 h, 0.2 μmol/L (in vitro [3]): 0.008

SMILES: CNC(=O)c1ccc(N2C(=S)N(c3cnc(C#N)c(C(F)(F)F)c3)C(=O)C23CCC3)cc1F [Apalutamide]
- fraction unbound at 24 h, 0.2 μmol/L (in vitro [4]): 0.03
- fu ratio (rat/human) [5]: 3.36
- fu ratio (rat/human) [6]: 2.30
- fraction unbound at 24 h, 0.2 μmol/L (in vitro [3]): 0.104
- fu ratio (rat/human) [7]: 2.50

SMILES: O=C1CCc2ccc(OCCCCN3CCN(c4cccc(Cl)c4Cl)CC3)cc2N1 [Aripiprazole]
- fraction unbound (in vitro [4]; Human (fu value)): 0.002
- fraction unbound (in vitro [4]; Human serum (serum concentration: 1/1) (fu value)): 0.0021
- fraction unbound (in vitro [3]; serum): 0.003
- Cmax ([1]; Dose 15 mg): 242 ng/mL

SMILES: COc1ccc2c(c1)[C@@H]1C[C@]1(C(=O)N1[C@@H]3CC[C@H]1CN(C)C3)Cn1c-2c(C2CCCCC2)c2ccc(C(=O)NS(=O)(=O)N(C)C)cc21 [Beclabuvir]
- fraction unbound at 24 h, 0.2 μmol/L (in vitro [4]): 0.007
- fraction unbound at 24 h, 0.2 μmol/L (in vitro [3]; serum): 0.008

SMILES: O=C(O)c1ccc(-n2nc(-c3ccccc3O)nc2-c2ccccc2O)cc1 [Deferasirox]
- Human (fu value) [2]: 0.005
- Ki (CYP3A4 [8]): ≥ 49 µM
- Ki value (CYP3A4 [8]; microsomes): maximum addition concentration
- fu ratio (serum/microsome) [9]: 0.0046
- fraction unbound at 24 h, 0.2 μmol/L (in vitro [3]; serum): 0.02
- AUCR (observed value) (CYP3A4 [10]; 210 mg): 0.90
- fu ratio (serum/microsome) [11]: 0.0099
- Cmax ([1]; Dose 210 mg): 40327 ng/mL

SMILES: C[C@]12C=CC(=O)N[C@@H]1CC[C@@H]1[C@@H]2CC[C@]2(C)[C@@H](C(=O)Nc3cc(C(F)(F)F)ccc3C(F)(F)F)CC[C@@H]12 [Dutasteride]
- fraction unbound at 24 h, 0.2 μmol/L (in vitro [4]): 0.006
- fraction unbound at 24 h, 0.2 μmol/L (in vitro [3]; serum): 0.009

SMILES: Cc1ncc2n1-c1ccc(Cl)cc1C(c1ccccc1F)=NC2 [midazolam]
- Km (CYP3A4 [12]): 2.06 µM

SMILES: CCC(C)n1ncn(-c2ccc(N3CCN(c4ccc(OCC5COC(Cn6cncn6)(c6ccc(Cl)cc6Cl)O5)cc4)CC3)cc2)c1=O (stereo not shown) [Itraconazole]
- fraction unbound at 24 h, 1 μmol/L [13]: 0.77
- AUCR (observed value) (CYP3A4 [10]; 50 mg): 1.91
- AUCR (observed value) (CYP3A4 [10]; 200 mg): 5.05
- AUCR (observed value) (CYP3A4 [10]; 400 mg): 5.07
- Cmax ([1]; Dose 50 mg): 14.11 ng/mL
- Cmax ([1]; Dose 200 mg): 163.93 ng/mL
- Cmax ([1]; Dose 400 mg): 317.52 ng/mL

SMILES: COC(=O)N[C@H](C(=O)N1CCC[C@H]1c1nc(-c2ccc3c(c2)O[C@@H](c2ccccc2)n2c-3cc3cc(-c4c[nH]c([C@@H]5CCCN5C(=O)[C@@H](NC(=O)OC)C(C)C)n4)ccc32)c[nH]1)C(C)C [Elbasvir]
- Human (fu value) [2]: 0.001
- Rat (fu value) [14]: 0.001

SMILES: c1ccc(Cc2nn[nH]n2)c(COc2ccc(OCc3ccc4ccccc4n3)cc2)c1 [RG12525]
- fraction unbound at 24 h, 1 μmol/L [13]: 0.77
- Ki (CYP3A4 [8]): 1.49 µM
- fu ratio (serum/microsome) [9]: 0.0005
- AUCR (observed value) (CYP3A4 [10]; 100 mg): 1.09
- AUCR (observed value) (CYP3A4 [10]; 600 mg): 1.01
- fu ratio (serum/microsome) [11]: 0.0129
- Cmax ([1]; Dose 100 mg): 1482 ng/mL
- Cmax ([1]; Dose 600 mg): 8186 ng/mL

SMILES: CCCSc1nc(N[C@@H]2C[C@H]2c2ccc(F)c(F)c2)c2nnn([C@@H]3C[C@H](OCCO)[C@@H](O)[C@H]3O)c2n1 [Tikaglera]
- Ki value (CYP3A4 [8]; human hepatic microsome, midazolam 0.33 μmol/L, IC50 used as Ki): maximum addition concentration
- Ki (CYP3A4 [8]; read-out: Ki value, human hepatic microsome, midazolam 0.33 μmol/L as CYP3A4 substrate, IC50 directly used as Ki): ≥ 87 µM
- fu ratio (serum/microsome) [9]: 0.0065
- Human serum (serum concentration: 1/1) (fu value) [15]: 0.0032
- fu ratio (serum/microsome) [11]: 0.0207
- fu ratio (scrum/microsome) [16]: 0.0103
- Cmax ([1]; Dose 90 mg): 403 ng/mL

SMILES: CS(=O)(=O)CCNCc1ccc(-c2ccc3ncnc(Nc4ccc(OCc5cccc(F)c5)c(Cl)c4)c3c2)o1 [Lapatinib]
- fraction unbound at 24 h, 1 μmol/L [13]: 0.05
